# Data as given in patent US5422353A, “Tetrahydropyridine derivatives” (Boehringer Ingelheim KG, priority 1988, dated 1995).
# Legend:
# [1] = biological target: muscarinic receptors; experiment: Receptor binding studies (radioligand L(+)cis-[2-methyl-3H]-N,N,N-trimethyl-1,3-dioxolan-4-methanammonium-iodide, NET-647); settings: cerebral cortex (rat); radioligand NET-647; tested as maleate (MA) or oxalate (OX) salt
# Description: The compounds of formulae I and Ia have valuable pharmacological properties. Thus, in bonding studies, they show affinities with muscarinic receptors and muscarbin-agonistic GTP-shifts (GTP=guanosintriphosphate). (Birdshall, N. I. M., E. C. Hulme and J. M. Stockton 1984 in T.I.P.S. Supplement, Proc. Internat. Symposium on Subtypes of Muscarinic Receptors, Ed. Hirschowitz, Hammer, Giacchetti, Keirns, Levine; Elsevier p. 4-8).
# The receptor binding studies were carried out according to: A. Closse, H. Bittiger, D. Langenegger and A. Wanner, Naunyn-Schmiedeberg's Arch. Pharmacol. 335, 372-377 (1987).
# Receptor binding studies
# L(+)cis-[2-methyl-^3 H]-N,N,N-trimethyl-
# 1,3-dioxolan-4-methanammonium-iodide
# NET-647, Messrs. NEN (New England
# Organ: Cerebral cortex (rat)
# [2] = test system: conscious rabbit; experiment: arousal reaction in the EEG (electroencephalograph) of a conscious rabbit; type: in vivo
SMILES,Ki [1] [nM],arousal reaction typical of cholinomimetics in the EEG ([2]; 1 mg/kg and 3 mg/kg i.v.),arousal reaction typical of cholinomimetics in the EEG ([2]; 0.1 mg/kg and 0.3 mg/kg i.v.)
"COCCC1=CCN(C)CC1 [OX, 4-(methoxyethyl)-1-methyl-1,2,3,6-tetrahydropyridine]",3900,–,–
"CCCOCC1=CCN(C)CC1 [Example 9, 1-Methyl-4-propoxymethyl-1,2,3,6-tetrahydropyridine]",140,–,–
"CCOCC1=CCN(C)CC1 [Example 2, 4-Ethoxymethyl-1-methyl-1,2,3,6-tetrahydropyridine]",210,exhibit an arousal reaction typical of cholinomimetics,–

# Now those with a lower Ki [1], led by results:
Ki [1] [nM],SMILES,arousal reaction typical of cholinomimetics in the EEG ([2]; 1 mg/kg and 3 mg/kg i.v.),arousal reaction typical of cholinomimetics in the EEG ([2]; 0.1 mg/kg and 0.3 mg/kg i.v.)
15,"CSCC1=CCN(C)CC1 [Example 13, 1-Methyl-4-[(methylthio)methyl]-1,2,3,6-tetrahydropyridine]",–,exhibit an arousal reaction typical of cholinomimetics
8.3,"CCSCC1=CCN(C)CC1 [Example 4, 4-[(Ethylthio)methyl]-1-methyl-1,2,3,6-tetrahydropyridine]",–,–
